# Patent publication US10377774B2 (JINAN UNIVERSITY, priority 2013, dated 2019)
# Marks after values point to notes of the source that are not given here.
# Experiments:
# [1] = test system: human promyelocytic leukemia cell line HL-60; experiment: MTT cell growth inhibition, HL-60; assay type: cell-based; details: HL-60, MTT assay, 72 h; read-out: IC50, growth of tumor cell line
# Excerpt: (§3) Experimental method: Cell lines (human non-small-cell lung cancer cell line A549, human colon cancer cell line LOVO, human nasopharyngeal carcinoma cell line CNE-2, human liver cancer cell line HepG2, human cervical carcinoma cell line Hela, human breast cancer cell lines MCF-7 and MDA-MB-231, human gastric carcinoma cell line NCI-N87, human prostatic cancer cell lines PC-3 and DU145, human leukemia cell line K562, human melanoma cell line A375, human neuroblastoma cell line SH-SY5H, human promyelocytic leukemia cell line HL-60, 5-FU-resistant human hepatocellular carcinoma cell line BEL-7402/5-Fu, doxorubicin-resistant hepatocellular carcinoma cell line HepG2/ADM, doxorubicin-resistant human breast cancer cell lines MCF-7/ADR) at logarithmic phase were resuspended in RPMI 1640 medium (containing 10% fetal bovine serum, 100 U/mL penicillin-streptomycin). Then, 100 μL of cells (cell concentration was 5×10^5/mL) were seeded into 96 wells plate. After 24 h incubation at 37° C. with 5% CO2, tested compounds were added (the control group without compound) for an additional 72 h incubation. After that, 30 μL of MTT [3-(4,5-Dimethylthiazol-2-yl)-2,5-diphenyltetrazolium bromide] solution (5 mg/mL) was added into each well and incubated for another 4 h at 37° C. and then the formazan crystals were solubilized with 100 μL DMSO. Finally, absorbance of each well was determined at 570 nm by a microplate reader (Thermo).
# (§4) The concentration required to inhibit cell growth by 50% (IC50) was calculated from survival curves.
# [2] = test system: K562 xenografts; experiment: K562 xenografts in nude mice; assay type: in vivo; details: K562 xenograft nude mice; for Anti-tumor rate (%) / Body weight (g) Post-dose / Tumor weight: 1 mg/kg; for Body weight (g) Pre-dose: before dosing
# Protocol: (§1) Experimental method: The MDA-MB-231 cells at logarithmic phase were digested and washed twice with PBS. Then, 100 μL cells (1×10^7) were inoculated subcutaneously on the backs of female BALB/nu/nu mice. After tumors grew to 70˜100 mm^3, the mice were divided randomly into saline group (control group), vinca alkaloids groups (VLB, CCRB, CCFN, CCXJ) and vinca alkaloid derivatives groups (JJ-CCJ, BX-CCJ, JJ-CCRB, BX-CCRB, JJ-CCFN, BX-CCFN, JJ-CCXJ and BX-CCXJ), with six mice per group. 1 mg/kg drugs were injected intraperitoneally every two days, meanwhile body weight and tumor sizes were measured. Experiment was ended after 8 times of drug administration, then tumor and organs were stripped. Tumor volumes were measured using the following formula: V=½(ab^2), whereas a refers to the longest diameter and b is the shortest diameter.
# (§2) Tumor xenograft models of HepG2, LOVO, K562 and HL-60 cell lines were performed as the method described above.
# [3] = test system: HepG2 xenografts; experiment: HepG2 xenografts in nude mice; assay type: in vivo; details: HepG2 xenograft nude mice; for Anti-tumor rate (%) / Body weight (g) Post-dose / Tumor weight: 1 mg/kg; for Body weight (g) Pre-dose: before dosing
# Protocol: as §1, §2
# [4] = test system: 5-FU-resistant human hepatocellular carcinoma cell line BEL-7402/5-Fu; experiment: MTT cell growth inhibition, BEL-7402/5-Fu; assay type: cell-based; details: MTT assay, 72 h, read-out: IC50, growth of tumor cell line
# [5] = test system: human melanoma cell line A375; experiment: MTT cell growth inhibition, A375; assay type: cell-based; details: A375, MTT assay, 72 h; read-out: IC50, growth of tumor cell line
# Excerpt: as §3, §4
# [6] = test system: human breast cancer cell line MDA-MB-231; experiment: MTT cell growth inhibition, MDA-MB-231; assay type: cell-based; details: MDA-MB-231, MTT assay, 72 h; read-out: IC50, growth of tumor cell line
# Excerpt: as §3, §4
# [7] = test system: human neuroblastoma cell line SH-SY5H; experiment: MTT cell growth inhibition, SH-SY5H; assay type: cell-based; details: MTT assay, 72 h, read-out: IC50, growth of tumor cell line
# Excerpt: as §3, §4
# [8] = test system: human liver cancer cell line HepG2; experiment: MTT cell growth inhibition, HepG2; assay type: cell-based; details: HepG2, MTT assay, 72 h; read-out: IC50, growth of tumor cell line
# Excerpt: as §3, §4
# [9] = test system: human colon cancer cell line LOVO; experiment: MTT cell growth inhibition, LOVO; assay type: cell-based; details: LOVO (FAPα positive), MTT assay, 72 h; read-out: IC50, growth of tumor cell line
# Excerpt: as §3, §4
# [10] = test system: human umbilical vein endothelial cells HUVEC; experiment: MTT cytotoxicity on normal cells, HUVEC; details: read-out: IC50, cytotoxicity on normal cell line; HUVEC, MTT assay
# Protocol: Then, 100 μL of cells (cell concentration was 5×10^5/mL) were seeded into 96 wells plate. After 24 h incubation at 37° C. with 5% CO2, tested compounds were added (the control group without compound) for an additional 72 h incubation. After that, 30 μL of MTT [3-(4,5-Dimethylthiazol-2-yl)-2,5-diphenyltetrazolium bromide] solution (5 mg/mL) was added into each well and incubated for another 4 h at 37° C. and then the formazan crystals were solubilized with 100 μL DMSO. Finally, absorbance of each well was determined at 570 nm by a microplate reader (Thermo).
# The standard curve was drew with compound concentrations as the abscissa and cell growth inhibition rates as the ordinate. The concentration required to inhibit cell growth by 50% (IC50) was calculated from survival curves.
# Experimental method: In vitro cytotoxicities of vinca alkaloids, hydrazinolyzed vinca alkaloids and vinca alkaloid dipeptide derivatives on human normal liver cells LO2 and human umbilical vein endothelial cells HUVEC were detected according to the method of Example 2.
# [11] = test system: human nasopharyngeal carcinoma cell line CNE-2; experiment: MTT cell growth inhibition, CNE-2; assay type: cell-based; details: CNE-2, MTT assay, 72 h; read-out: IC50, growth of tumor cell line
# Excerpt: as §3, §4
# [12] = test system: MDA-MB-231 xenografts; experiment: MDA-MB-231 xenografts in nude mice; assay type: in vivo, BALB/nu/nu mice; details: MDA-MB-231 xenograft nude mice; for Anti-tumor rate (%) / Body weight (g) Post-dose / Tumor weight: 1 mg/kg i.p. every two days, 8 administrations; for Body weight (g) Pre-dose: before dosing
# Protocol: as §1
# [13] = test system: human non-small-cell lung cancer cell line A549; experiment: MTT cell growth inhibition, A549; assay type: cell-based; details: A549, MTT assay, 72 h; read-out: IC50, growth of tumor cell line
# Excerpt: as §3, §4
# [14] = test system: human normal liver cells LO2; experiment: MTT cytotoxicity on normal cells, LO2; details: read-out: IC50, cytotoxicity on normal cell line; LO2, MTT assay
# [15] = test system: human breast cancer cell line MCF-7; experiment: MTT cell growth inhibition, MCF-7; assay type: cell-based; details: MCF-7, MTT assay, 72 h; read-out: IC50, growth of tumor cell line
# Excerpt: as §3, §4
# [16] = test system: human gastric carcinoma cell line NCI-N87; experiment: MTT cell growth inhibition, NCI-N87; assay type: cell-based; details: NCI-N87, MTT assay, 72 h; read-out: IC50, growth of tumor cell line
# Excerpt: as §3, §4
# [17] = test system: doxorubicin-resistant human breast cancer cell lines MCF-7/ADR; experiment: MTT cell growth inhibition, MCF-7/ADR; assay type: cell-based; details: MTT assay, 72 h, read-out: IC50, growth of tumor cell line
# Excerpt: as §3, §4
# [18] = test system: human prostatic cancer cell line PC-3; experiment: MTT cell growth inhibition, PC-3; assay type: cell-based; details: PC-3, MTT assay, 72 h; read-out: IC50, growth of tumor cell line
# [19] = test system: human leukemia cell line K562; experiment: MTT cell growth inhibition, K562; assay type: cell-based; details: K562, MTT assay, 72 h; read-out: IC50, growth of tumor cell line
# Excerpt: as §3, §4
# [20] = test system: doxorubicin-resistant hepatocellular carcinoma cell line HepG2/ADM; experiment: MTT cell growth inhibition, HepG2/ADM; assay type: cell-based, human; details: MTT assay, 72 h, read-out: IC50, growth of tumor cell line
# Excerpt: as §3, §4
# [21] = test system: LOVO xenografts; experiment: LOVO xenografts in nude mice; assay type: in vivo; details: LOVO xenograft nude mice; for Anti-tumor rate (%) / Body weight (g) Post-dose / Tumor weight: 1 mg/kg; for Body weight (g) Pre-dose: before dosing
# Protocol: as §1, §2
# [22] = test system: Kunming mice; experiment: Acute toxicity test; assay type: in vivo; details: injected intraperitoneally
# Protocol: Experimental method: Kunming mice were purchased from Guangdong Medical Experimental Animal Center, weighing 18-22 g, then randomly divided into several groups with 10 mice in each group. Different concentrations of VLB and vinca alkaloid dipeptide derivatives were injected intraperitoneally. Finally, the median lethal dose (LD50) was calculated according to the surviving animals.
# LD50 was measured using the following formula:
# LD50 (mg/kg)=The median lethal dose/body weight
# [23] = test system: HL-60 xenografts; experiment: HL-60 xenografts in nude mice; assay type: in vivo; details: HL-60 xenograft nude mice; for Anti-tumor rate (%) / Body weight (g) Post-dose / Tumor weight: 1 mg/kg; for Body weight (g) Pre-dose: before dosing
# Protocol: as §1, §2
# [24] = test system: human prostatic cancer cell line DU145; experiment: MTT cell growth inhibition, DU-145; assay type: cell-based; details: DU-145, MTT assay, 72 h; read-out: IC50, growth of tumor cell line
# Excerpt: as §3, §4
# [25] = test system: human cervical carcinoma cell line Hela; experiment: MTT cell growth inhibition, Hela; assay type: cell-based; details: MTT assay, 72 h, read-out: IC50, growth of tumor cell line
# Excerpt: as §3, §4
SMILES,IC50 [1],Anti-tumor rate (%) [2],Body weight (g) Post-dose [2],Tumor weight [2],Body weight (g) Pre-dose [2],Anti-tumor rate (%) [3],Body weight (g) Post-dose [3],Tumor weight [3],Body weight (g) Pre-dose [3],IC50 [4],IC50 [5],IC50 [6],IC50 [7],IC50 [8],IC50 [9],IC50 [10],IC50 [11],Anti-tumor rate (%) [12],Body weight (g) Post-dose [12],Tumor weight [12],also measured
"CCC12C=CCN3CCC4(c5cc(C6(C(=O)OC)CC7CC(C(C)(F)F)CN(Cc8c6[nH]c6ccccc86)C7)c(OC)cc5N(C)C4C(O)(C(=O)NNC(=O)C4CCCN4C(=O)CNC(=O)OCc4ccccc4)C1O)C32 (stereo not shown) [BX-CCFN, Z-GP-NHNH-Vinflunine]",726 ± 98.2 nM,66.08** %,23.0 ± 0.8 g,0.57 ± 0.13 g,22.9 ± 1.3 g,88.24** %,22.1 ± 1.2 g,0.30 ± 0.17 g,21.9 ± 1.3 g,390 ± 15.7 nM,528 ± 34.8 nM,614 ± 9.29 nM,459 ± 13.5 nM,299 ± 7.64 nM,320 ± 8.51 nM,270 ± 7.7 nM,309 ± 5.78 nM,88.13** %,20.6 ± 1.6 g,0.31 ± 0.11 g,Body weight (g) Pre-dose [12]: 20.2 ± 0.7 g; IC50 [13]: 335 ± 7.31 nM; IC50 [14]: 301 ± 14.3 nM; IC50 [15]: 606 ± 11.5 nM; IC50 [16]: 430 ± 10.4 nM; IC50 [17]: 908 ± 20.2 nM; IC50 [18]: 317 ± 31.3 nM; IC50 [19]: 229 ± 6.6 nM; IC50 [20]: 604 ± 17.9 nM; Anti-tumor rate (%) [21]: 83.63** %; Body weight (g) Post-dose [21]: 24.5 ± 1.5 g; Tumor weight [21]: 0.47 ± 0.31 g; Body weight (g) Pre-dose [21]: 23.6 ± 1.3 g; LD50 (median lethal dose) [22]: 15 mg/kg; Anti-tumor rate (%) [23]: 70.68** %; Body weight (g) Post-dose [23]: 18.6 ± 1.4 g; Tumor weight [23]: 0.61 ± 0.35 g; Body weight (g) Pre-dose [23]: 18.7 ± 1.4 g; IC50 [24]: 289 ± 28.8 nM; IC50 [25]: 430 ± 10.1 nM
"CCC1(O)CC2CN(CCc3c([nH]c4ccccc34)C(C(=O)OC)(c3cc4c(cc3OC)N(C)C3C(O)(C(=O)NNC(=O)C5CCCN5C(=O)CNC(=O)OCc5ccccc5)C(O)C5(CC)C=CCN6CCC43C65)C2)C1 (stereo not shown) [BX-CCJ, Z-GP-NHNH-Vinblastine]",85.5 ± 9.57 nM,76.79** %,23.1 ± 1.4 g,0.39 ± 0.27 g,22.3 ± 1.0 g,86.67** %,22.1 ± 1.3 g,0.34 ± 0.21 g,22.0 ± 1.7 g,179 ± 8.87 nM,49.5 ± 4.53 nM,64.2 ± 4.57 nM,59.8 ± 6.42 nM,46.8 ± 1.17 nM,44.8 ± 8.15 nM,129 ± 1.34 nM,52.7 ± 3.01 nM,92.34** %,21.2 ± 2.1 g,0.20 ± 0.12 g,Body weight (g) Pre-dose [12]: 19.8 ± 1.0 g; IC50 [13]: 62.1 ± 3.87 nM; IC50 [14]: 96.3 ± 1.11 nM; IC50 [15]: 108 ± 4.23 nM; IC50 [16]: 103 ± 8.87 nM; IC50 [18]: 71.1 ± 1.97 nM; IC50 [19]: 11.7 ± 3.04 nM; IC50 [20]: 146 ± 5.47 nM; Anti-tumor rate (%) [21]: 85.02** %; Body weight (g) Post-dose [21]: 24.4 ± 1.6 g; Tumor weight [21]: 0.43 ± 0.38 g; Body weight (g) Pre-dose [21]: 23.8 ± 1.9 g; LD50 (median lethal dose) [22]: 10 mg/kg; Anti-tumor rate (%) [23]: 81.29** %; Body weight (g) Post-dose [23]: 20.1 ± 1.0 g; Tumor weight [23]: 0.41 ± 0.19 g; Body weight (g) Pre-dose [23]: 18.8 ± 1.1 g; IC50 [24]: 57.3 ± 2.07 nM; IC50 [25]: 56.8 ± 3.08 nM
"CCC1=CC2CN(C1)Cc1c([nH]c3ccccc13)C(C(=O)OC)(c1cc3c(cc1OC)N(C)C1C(O)(C(=O)NNC(=O)C4CCCN4C(=O)CNC(=O)OCc4ccccc4)C(O)C4(CC)C=CCN5CCC31C54)C2 (stereo not shown) [BX-CCRB, Z-GP-NHNH-Vinorelbine]",208 ± 18.4 nM,72.62** %,23.4 ± 1.2 g,0.46 ± 0.29 g,22.1 ± 0.5 g,85.49** %,22.6 ± 0.5 g,0.37 ± 0.09 g,22.2 ± 1.5 g,325 ± 11.7 nM,120 ± 14.5 nM,181 ± 8.1 nM,166 ± 15.6 nM,167 ± 4.37 nM,123 ± 11.4 nM,167 ± 8.87 nM,210 ± 5.78 nM,85.83** %,20.1 ± 0.9 g,0.37 ± 0.07 g,Body weight (g) Pre-dose [12]: 19.1 ± 1.7 g; IC50 [13]: 115 ± 5.23 nM; IC50 [14]: 183 ± 5.51 nM; IC50 [15]: 238 ± 8.37 nM; IC50 [16]: 244 ± 9.33 nM; IC50 [18]: 269.8 ± 2.03 nM; IC50 [19]: 109 ± 4.66 nM; IC50 [20]: 437 ± 14.4 nM; Anti-tumor rate (%) [21]: 80.14** %; Body weight (g) Post-dose [21]: 24.1 ± 2.3 g; Tumor weight [21]: 0.57 ± 0.23 g; Body weight (g) Pre-dose [21]: 23.6 ± 1.2 g; LD50 (median lethal dose) [22]: 12 mg/kg; Anti-tumor rate (%) [23]: 74.52** %; Body weight (g) Post-dose [23]: 19.2 ± 1.3 g; Tumor weight [23]: 0.53 ± 0.28 g; Body weight (g) Pre-dose [23]: 19.0 ± 1.2 g; IC50 [24]: 219 ± 6.29 nM; IC50 [25]: 182 ± 2.36 nM
